# Legend:
# [1] = tested on: ABUTH (Abutilon theophrasti); assay: Postemergence herbicidal evaluation; assay type: in vivo, Medic.
# How it was run: (§1)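 Seedlings grown about two weeks in flats, sprayed, then kept under standard greenhouse care. Rated visually 4–5 weeks after treatment on a 0–9 scale (stand, vigour, malformation, size, chlorosis, overall appearance) relative to untreated control; repeat tests averaged.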
# [2] = tested on: AMBEL (Ambrosia artemisifolia); assay: Postemergence herbicidal evaluation; assay type: in vivo, L.
# How it was run: as §1
# [3] = tested on: CASOB (Cassia obtusifolia); assay: Postemergence herbicidal evaluation; assay type: in vivo, L.
# How it was run: as §1
# [4] = tested on: CHEAL (Chenopodium album); assay: Postemergence herbicidal evaluation; assay type: in vivo, L.
# How it was run: as §1
# [5] = tested on: IPOHE (Ipomoea hederacea); assay: Postemergence herbicidal evaluation; assay type: in vivo, (L.) Jacq.
# How it was run: as §1
# [6] = tested on: GLXMAW (Soybean, Williams); assay: Postemergence herbicidal evaluation; assay type: in vivo, Glycine max, (L.) Merr. cv Williams
# How it was run: as §1
# ORYSAT (Rice, Tebonnet) [7] = assay: Postemergence herbicidal evaluation; assay type: in vivo, Oryza sativa, (L.) Tebonnet
# How it was run: as §1
# [8] = tested on: ABUTH (Abutilon theophrasti); assay: Preemergence herbicidal evaluation; assay type: in vivo, Medic.; details: preemergence, rated 4-5 weeks after treatment
# [9] = tested on: AMBEL (Ambrosia artemisifolia); assay: Preemergence herbicidal evaluation; assay type: in vivo, L.; details: preemergence, rated 4-5 weeks after treatment
# How it was run: (§2)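 Scores (0–9) reflect visual comparison with control plants for stand, vigor, malformation, size and chlorosis. Seeds in potting soil received a post-planting spray of compound in aqueous acetone and grew in a greenhouse until assessment 4–5 weeks later.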
# [10] = tested on: CASOB (Cassia obtusifolia); assay: Preemergence herbicidal evaluation; assay type: in vivo, L.; details: preemergence, rated 4-5 weeks after treatment
# How it was run: as §2
# [11] = tested on: CHEAL (Chenopodium album); assay: Preemergence herbicidal evaluation; assay type: in vivo, L.; details: preemergence, rated 4-5 weeks after treatment
# How it was run: as §2
# [12] = tested on: IPOHE (Ipomoea hederacea); assay: Preemergence herbicidal evaluation; assay type: in vivo, (L.) Jacq.; details: preemergence, rated 4-5 weeks after treatment
# [13] = tested on: ECHCG (Echinochloa crus-galli); assay: Preemergence herbicidal evaluation; assay type: in vivo, (L.) Beau; details: preemergence, rated 4-5 weeks after treatment
# How it was run: as §2
# SETVI (Setaria viridis) = assay: Preemergence herbicidal evaluation; assay type: in vivo, (L.) Beau; details: preemergence, rated 4-5 weeks after treatment
# How it was run: as §2
# [14] = tested on: GLXMAW (Soybean, Williams); assay: Preemergence herbicidal evaluation; assay type: in vivo, Glycine max, (L.) Merr. cv Williams; details: preemergence, rated 4-5 weeks after treatment
# [15] = tested on: TRZAWR (Wheat, Winter, cv Riband); assay: Preemergence herbicidal evaluation; assay type: in vivo, Triticum aestivum; details: preemergence, rated 4-5 weeks after treatment
# How it was run: as §2
# ZEAMX (Corn, Field) = assay: Preemergence herbicidal evaluation; assay type: in vivo, Zea mays, L.; details: preemergence, rated 4-5 weeks after treatment
# CYPIR (Cyperus iria) = assay: Flooded paddy, preemergence weed control; assay type: in vivo; details: rated 3-4 weeks after treatment, 0-9 rating scale
# How it was run: (§3)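 Plants were established from seed or propagating organs in flooded silt loam, with the water surface held 1.5 to 3 cm above the soil for the entire experiment. Injury was assessed visually against a control and given a 0-9 score.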
# [16] = tested on: MOOVA (Monochoria vaginalis); assay: Flooded paddy, preemergence weed control; assay type: in vivo, Presl.; details: rated 3-4 weeks after treatment, 0-9 rating scale
# How it was run: as §3
# ORYSAT (Rice, Tebonnet) [17] = assay: Flooded paddy, post-transplant rice tolerance; assay type: in vivo, Oryza sativa, (L.) Tebonnet; details: flooded paddy, post-transplant rice, rated 3-4 weeks after treatment, 0-9 rating scale
# How it was run: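 Scores (0-9) reflect visual injury relative to untreated plants in flooded silt loam. Each pot held two transplanted ten-day-old seedlings under 1.5 to 3 cm standing water in the greenhouse.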
compound,measurement,setting,value
"Cn1c(C(F)(F)F)cc(=O)n(-c2ccc3snc(C4OCCS4)c3c2)c1=O (centres unmarked) [Compound 31, 1-methyl-3-[3-(1,3-oxathiolan-2-yl)-1,2-benzisothiazol-5-yl]-6-(trifluoromethyl)uracil]","Postemergence herbicidal rating, ABUTH",[1]; rate 0.0320 kg/ha,9.0
same,"Postemergence herbicidal rating, ABUTH",[1]; rate 0.0620 kg/ha,9.0
same,"Postemergence herbicidal rating, AMBEL",[2]; rate 0.0320 kg/ha,9.0
same,"Postemergence herbicidal rating, AMBEL",[2]; rate 0.0620 kg/ha,9.0
same,"Postemergence herbicidal rating, CASOB",[3]; rate 0.0320 kg/ha,5.0
same,"Postemergence herbicidal rating, CASOB",[3]; rate 0.0620 kg/ha,8.0
same,"Postemergence herbicidal rating, CHEAL",[4]; rate 0.0320 kg/ha,9.0
same,"Postemergence herbicidal rating, CHEAL",[4]; rate 0.0620 kg/ha,9.0
same,"Postemergence herbicidal rating, IPOHE",[5]; rate 0.0320 kg/ha,9.0
same,"Postemergence herbicidal rating, IPOHE",[5]; rate 0.0620 kg/ha,9.0
same,"Postemergence herbicidal rating, GLXMAW",[6]; rate 0.0320 kg/ha,8.5
same,"Postemergence herbicidal rating, GLXMAW",[6]; rate 0.0620 kg/ha,9.0
same,"Postemergence herbicidal rating, ORYSAT","ORYSAT (Rice, Tebonnet) [7]; rate 0.0320 kg/ha",3.5
same,"Postemergence herbicidal rating, ORYSAT","ORYSAT (Rice, Tebonnet) [7]; rate 0.0620 kg/ha",5.5
same,ABUTH preemergence herbicidal rating,[8]; Rate 0.0620 kg/ha,8.3
same,ABUTH preemergence herbicidal rating,[8]; Rate 0.1250 kg/ha,9.0
same,ABUTH preemergence herbicidal rating,[8]; Rate 0.2500 kg/ha,9.0
same,AMBEL preemergence herbicidal rating,[9]; Rate 0.0620 kg/ha,9.0
same,AMBEL preemergence herbicidal rating,[9]; Rate 0.1250 kg/ha,9.0
same,AMBEL preemergence herbicidal rating,[9]; Rate 0.2500 kg/ha,9.0
same,CASOB preemergence herbicidal rating,[10]; Rate 0.0620 kg/ha,5.0
same,CASOB preemergence herbicidal rating,[10]; Rate 0.1250 kg/ha,8.0
same,CASOB preemergence herbicidal rating,[10]; Rate 0.2500 kg/ha,9.0
same,CHEAL preemergence herbicidal rating,[11]; Rate 0.0620 kg/ha,9.0
same,CHEAL preemergence herbicidal rating,[11]; Rate 0.1250 kg/ha,9.0
same,CHEAL preemergence herbicidal rating,[11]; Rate 0.2500 kg/ha,9.0
same,IPOHE preemergence herbicidal rating,[12]; Rate 0.0620 kg/ha,5.0
same,IPOHE preemergence herbicidal rating,[12]; Rate 0.1250 kg/ha,9.0
same,IPOHE preemergence herbicidal rating,[12]; Rate 0.2500 kg/ha,9.0
same,ECHCG preemergence herbicidal rating,[13]; Rate 0.0620 kg/ha,4.7
same,ECHCG preemergence herbicidal rating,[13]; Rate 0.1250 kg/ha,8.7
same,ECHCG preemergence herbicidal rating,[13]; Rate 0.2500 kg/ha,9.0
same,SETVI preemergence herbicidal rating,SETVI (Setaria viridis); Rate 0.0620 kg/ha,7.7
same,SETVI preemergence herbicidal rating,SETVI (Setaria viridis); Rate 0.1250 kg/ha,9.0
same,SETVI preemergence herbicidal rating,SETVI (Setaria viridis); Rate 0.2500 kg/ha,9.0
same,GLXMAW preemergence herbicidal rating,[14]; Rate 0.0620 kg/ha,8.5
same,GLXMAW preemergence herbicidal rating,[14]; Rate 0.1250 kg/ha,7.3
same,GLXMAW preemergence herbicidal rating,[14]; Rate 0.2500 kg/ha,9.0
same,TRZAWR preemergence herbicidal rating,[15]; Rate 0.0620 kg/ha,7.0
same,TRZAWR preemergence herbicidal rating,[15]; Rate 0.1250 kg/ha,8.0
same,TRZAWR preemergence herbicidal rating,[15]; Rate 0.2500 kg/ha,9.0
same,ZEAMX preemergence herbicidal rating,"ZEAMX (Corn, Field); Rate 0.0620 kg/ha",4.7
same,ZEAMX preemergence herbicidal rating,"ZEAMX (Corn, Field); Rate 0.1250 kg/ha",6.3
same,ZEAMX preemergence herbicidal rating,"ZEAMX (Corn, Field); Rate 0.2500 kg/ha",8.5
same,"herbicidal rating, CYPIR",CYPIR (Cyperus iria); rate 0.0080 kg/ha,0.0
same,"herbicidal rating, CYPIR",CYPIR (Cyperus iria); rate 0.0320 kg/ha,9.0
same,"herbicidal rating, CYPIR",CYPIR (Cyperus iria); rate 0.1250 kg/ha,9.0
same,"herbicidal rating, MOOVA",[16]; rate 0.0080 kg/ha,5.0
same,"herbicidal rating, MOOVA",[16]; rate 0.0320 kg/ha,9.0
same,"herbicidal rating, MOOVA",[16]; rate 0.1250 kg/ha,9.0
same,"herbicidal rating, ORYSAT (rice tolerance)","ORYSAT (Rice, Tebonnet) [17]; rate 0.0080 kg/ha",0.0
same,"herbicidal rating, ORYSAT (rice tolerance)","ORYSAT (Rice, Tebonnet) [17]; rate 0.0320 kg/ha",7.5
same,"herbicidal rating, ORYSAT (rice tolerance)","ORYSAT (Rice, Tebonnet) [17]; rate 0.1250 kg/ha",9.0
